# Results taken from US20160030415A1, “TREATMENT AND PROPHYLAXIS OF KIDNEY DISEASES” (priority 2013, published 2016).
# System: STZ induced diabetic nephropathy in rats
# Test: Study 4: HCQ and its combination with Losartan, Telmisartan, Azilsartan and Ramipril, with Glimepiride control
# Format: in vivo, Wistar rats
# Settings: for HDL / TC / TG / GSH / TBARS / Total protein kidney / Creatinine / Total protein / Urea: after 8th week; for Glucose Day1 / Glucose Day14 / Glucose Day28 / Glucose Day42 / Glucose Day56: blood; for GSH / TBARS / Total protein kidney: kidney homogenate; for Creatinine / Total protein / Urea: serum
# Procedure: The methods described in Terri et al, Diabetes Volume, 1997, 46:1612-1618, and Takashi et al, Jpn J. Pharmacol, 1997, 75, 59-64, were followed for inducing Diabetes in rats by injecting Streptozotocin. The Efficacy of the drugs was tested in two different models, one involving comparison with diabetic control (i.e. Diabetic Rats not treated with any medication) and the other involving comparison with the anti-diabetic control group (i.e. Diabetic rats administered Glimepiride) in two separate studies.
# Wistar rats of either sex weighing 150-200 g were divided randomly into 28 groups consisting of 6 animals each. Diabetes was induced in rats by single administration of streptozotocin (55 mg/kg/i.p) dissolved in 0.1 M-citrate buffer, pH 4.5. Group 1 (normal control) consisted of normal rats that neither received streptozotocin nor any test drug; Group 2 served as Diabetic control; Group 3 was diabetic rats treated with Hydroxychloroquine (35 mg/kg); Group 4 was diabetic rats treated with Hydroxychloroquine (45 mg/kg) and Group 5 was diabetic rats treated with Hydroxychloroquine (70 mg/kg); Group 6 was diabetic rats treated with Losartan (5.5 mg/kg); Group 7 was diabetic rats treated with Losartan (11 mg/kg); Group 8 was diabetic rats treated with combination of Losartan (5.5 mg/kg) and Hydroxychloroquine (45 mg/kg); Group 9 was diabetic rats treated with combination of Losartan (11 mg/kg) and Hydroxychloroquine (35 mg/kg); Group 10 was diabetic rats treated with Ramipril (0.6 mg/kg); Group 11 was diabetic rats treated with Ramipril (0.3 mg/kg); Group 12 was diabetic rats treated with combination of Ramipril (0.6 mg/kg) and Hydroxychloroquine (35 mg/kg); Group 13 was diabetic rats treated with combination of Ramipril (0.3 mg/kg) and Hydroxychloroquine (45 mg/kg); Group 14 was diabetic rats treated with combination of Ramipril (0.6 mg/kg) and Hydroxychloroquine (45 mg/kg); Group 15 was diabetic rats treated with combination of Ramipril (0.3 mg/kg) and Hydroxychloroquine (35 mg/kg); Group 16 was diabetic rats treated with Telmisartan (9.5 mg/kg); Group 17 was diabetic rats treated with Telmisartan (4.5 mg/kg); Group 18 was diabetic rats treated with combination of Telmisartan (9.5 mg/kg) and Hydroxychloroquine (35 mg/kg); Group 19 was diabetic rats treated with combination of Telmisartan (4.5 mg/kg) and Hydroxychloroquine (45 mg/kg); Group 20 was diabetic rats treated with combination of Telmisartan (9.5 mg/kg) and Hydroxychloroquine (45 mg/kg); Group 21 was diabetic rats treated with combination of Telmisartan (4.5 mg/kg) and Hydroxychloroquine (35 mg/kg); Group 22 was diabetic rats treated with Azilsartan (4.5 mg/kg); Group 23 was diabetic rats treated with Azilsartan (2.5 mg/kg); Group 24 was diabetic rats treated with combination of Azilsartan (4.5 mg/kg) and Hydroxychloroquine (35 mg/kg); Group 25 was diabetic rats treated with combination of Azilsartan (2.5 mg/kg) and Hydroxychloroquine (45 mg/kg); Group 26 was diabetic rats treated with combination of Azilsartan (4.5 mg/kg) and Hydroxychloroquine (45 mg/kg); Group 27 was diabetic rats treated with combination of Azilsartan (2.5 mg/kg) and Hydroxychloroquine (35 mg/kg); Group 28 served as Anti-Diabetic control wherein diabetic rats were treated with antidiabetic drug Glimepiride (GLM) (1 mg/kg).
# The study drugs were dissolved/suspended in vehicle and administered orally once a day for eight weeks. The diabetes mellitus induced nephropathy was assessed by estimating the level of serum urea, serum creatinine and total serum protein content after completion of eighth week of study. TBARS, GSH and Total Protein were measured as markers of renal oxidative stress in Kidney Homogenate after completion of eighth week of study. Blood glucose levels were also assessed at weekly interval.
# [1] = dose mg/kg: HCQ 35, LT 5.5, RM 0.3, TL 4.5, AZ 2.5, alone or combined with HCQ 35
# [2] = dose mg/kg: HCQ 45, LT 11, RM 0.6, TL 9.5, AZ 4.5, alone or combined with HCQ 45
structure (smiles),measurement,setting,value
"CCN(CCO)CCCC(C)Nc1ccnc2cc(Cl)ccc12 (stereo not shown) [Hydroxychloroquine, 2-[{4-[(7-chloroquinolin-4-yl)amino]pentyl}(ethyl)amino]ethanol]",HDL,[1],29.5 ± 2.17 mg/dL
same,TC,[1],133.5 ± 3.62 mg/dL
same,TG,[1],94.83 ± 2.48 mg/dL
same,HDL,[2],29 ± 2.19 mg/dL
same,TC,[2],130.33 ± 2.07 mg/dL
same,TG,[2],96.83 ± 2.93 mg/dL
same,HDL,"dose mg/kg: HCQ 70, GLM 1",30.67 ± 1.86 mg/dL
same,TC,"dose mg/kg: HCQ 70, GLM 1",124.67 ± 2.94 mg/dL
same,TG,"dose mg/kg: HCQ 70, GLM 1",90.17 ± 3.49 mg/dL
same,Glucose Day1,[1],268.83 ± 17.77 mg/dL
same,Glucose Day1,[2],277.5 ± 17.74 mg/dL
same,Glucose Day1,"dose mg/kg: HCQ 70, GLM 1",274.5 ± 16.01 mg/dL
same,Glucose Day14,[1],203.33 ± 28.11 mg/dL
same,Glucose Day14,[2],229.17 ± 10.38 mg/dL
same,Glucose Day14,"dose mg/kg: HCQ 70, GLM 1",209.67 ± 21.69 mg/dL
same,Glucose Day28,[1],176.83 ± 29.1 mg/dL
same,Glucose Day28,[2],184.17 ± 14.5 mg/dL
same,Glucose Day28,"dose mg/kg: HCQ 70, GLM 1",169.5 ± 10.48 mg/dL
same,Glucose Day42,[1],165 ± 13.61 mg/dL
same,Glucose Day42,[2],154.17 ± 9.13 mg/dL
same,Glucose Day42,"dose mg/kg: HCQ 70, GLM 1",148.67 ± 8.5 mg/dL
same,Glucose Day56,[1],151.5 ± 7.42 mg/dL
same,Glucose Day56,[2],140 ± 7.56 mg/dL
same,Glucose Day56,"dose mg/kg: HCQ 70, GLM 1",130.83 ± 7.22 mg/dL
same,GSH,[1],0.71 ± 0.16 nM/mg
same,TBARS,[1],0.67 ± 0.11 nM/mg
same,Total protein kidney,[1],865.33 ± 27.9 µg/mL
same,GSH,[2],0.7 ± 0.17 nM/mg
same,TBARS,[2],0.65 ± 0.13 nM/mg
same,Total protein kidney,[2],831.67 ± 24.15 µg/mL
same,GSH,"dose mg/kg: HCQ 70, GLM 1",0.67 ± 0.19 nM/mg
same,TBARS,"dose mg/kg: HCQ 70, GLM 1",0.63 ± 0.12 nM/mg
same,Total protein kidney,"dose mg/kg: HCQ 70, GLM 1",752.33 ± 18.8 µg/mL
same,Creatinine,[1],3.11 ± 0.16 mg/dL
same,Total protein,[1],4.52 ± 0.39 g/dL
same,Urea,[1],44.33 ± 1.75 mg/dL
same,Creatinine,[2],2.99 ± 0.34 mg/dL
same,Total protein,[2],5.4 ± 0.36 g/dL
same,Urea,[2],40.83 ± 2.14 mg/dL
same,Creatinine,"dose mg/kg: HCQ 70, GLM 1",2.68 ± 0.23 mg/dL
same,Total protein,"dose mg/kg: HCQ 70, GLM 1",5.72 ± 0.3 g/dL
same,Urea,"dose mg/kg: HCQ 70, GLM 1",38.17 ± 1.47 mg/dL
CCOC(=O)[C@H](CCc1ccccc1)N[C@@H](C)C(=O)N1[C@H](C(=O)O)C[C@@H]2CCC[C@@H]21 [Ramipril],HDL,[1],27.17 ± 1.47 mg/dL
same,TC,[1],138.33 ± 2.94 mg/dL
same,TG,[1],100.17 ± 5 mg/dL
same,HDL,[2],27.33 ± 1.63 mg/dL
same,TC,[2],142.17 ± 3.31 mg/dL
same,TG,[2],98.5 ± 4.93 mg/dL
same,Glucose Day1,[1],281.5 ± 18.2 mg/dL
same,Glucose Day1,[2],260 ± 17.19 mg/dL
same,Glucose Day14,[1],216.17 ± 21.48 mg/dL
same,Glucose Day14,[2],203 ± 14.07 mg/dL
same,Glucose Day28,[1],174.17 ± 9.06 mg/dL
same,Glucose Day28,[2],174.33 ± 8.91 mg/dL
same,Glucose Day42,[1],158.5 ± 9.07 mg/dL
same,Glucose Day42,[2],157.67 ± 9.18 mg/dL
same,Glucose Day56,[1],145.33 ± 6.38 mg/dL
same,Glucose Day56,[2],141.67 ± 5.47 mg/dL
same,GSH,[1],1.16 ± 0.62 nM/mg
same,TBARS,[1],0.67 ± 0.1 nM/mg
same,Total protein kidney,[1],835.33 ± 22.27 µg/mL
same,GSH,[2],1.16 ± 0.59 nM/mg
same,TBARS,[2],0.62 ± 0.15 nM/mg
same,Total protein kidney,[2],810 ± 17.12 µg/mL
same,Creatinine,[1],3.37 ± 0.32 mg/dL
same,Total protein,[1],4.76 ± 0.28 g/dL
same,Urea,[1],41.33 ± 1.97 mg/dL
same,Creatinine,[2],3.68 ± 0.24 mg/dL
same,Total protein,[2],4.77 ± 0.21 g/dL
same,Urea,[2],41 ± 1.79 mg/dL
